The values that follow come from patent US10870635B2, “Compounds and their use as BACE1 inhibitors” (ALLGENESIS BIOTHERAPEUTICS, INC., priority 2015, dated 2020).

Like-named read-outs stand apart in the source and are kept apart here.

This assay deals with cellular production of amyloid β peptide (Aβ40) in 7PA2 CHO cells. Briefly: Cell amyloid-beta production assay (MSD electrochemiluminescence immunoassay). In kind it is cell-based. To be noted: 12 hours incubation, read-out: Cell Abeta40 IC50. The text has this:
Amyloid-β (Aβ) is a 33-42-amino acid post-proteolytic peptide generated as the result of the sequential cleavage of amyloid precursor protein (APP) by BACE1 and γ-secretase. Substantial evidence points to aggregation and deposition of certain isoforms of amyloid β peptide in the brain being causal to neurodegeneration and dementia typical of AD. There are two major isoforms of Aβ which are monitored as a biomarker to gain early read on Aβ aggregation: Aβ340 and Aβ342. Increased extracellular accumulation of amyloid β peptide results in the formation of amyloid β peptide oligomers, cerebral amyloid plaques, neurodegeneration, and ultimately brain atrophy, all of which play a pivotal role in AD neuropathological hallmarks.
The reagents for the cell amyloid beta production assay were prepared as follows.
7PA2 CHO cells (licensed from Dr. Dennis Selkoe's laboratory) were plated into 96-well plates at a density of 50,000 cells per […] complete medium (DMEM medium containing 10% fetal bovine serum, L-glutamine, penicillin/streptomycin and 200 μg/ml of G418). Cells were incubated for 16-18 hours in complete medium and the culture medium was aspirated and discarded. Fresh complete medium containing test articles or positive control, LY2886721, within drug concentration range from 0.01 to 100 nM or complete medium only (controls) was added for 12 hours, and the cell culture medium was assayed directly or following a dilution with complete cell culture medium and frozen at −80° C. until it could be assayed for Aβ38, Aβ40 and Aβ42 content using an MSD multiplex electrochemiluminescence immunoassay.
In the Meso Scale Discovery electrochemiluminescence immunoassay, on a block plate, add 150 μL of Diluent 35 to each well, seal the plate with an adhesive plate seal and incubate with shaking for 1 hour at room temperature. Wash and then add detection antibody solution and samples. Wash the plate 3 times with at least 150 μL/well of wash buffer. […] Add 150 μL of 2× Read Buffer T to each well. Read the plate on the MSD imager. No incubation in read buffer is required before reading the plate. […]

On to `CC#Cc1ccc2sc3ccc([C@]4(C)CS(=O)(=O)C(C)(C)C(N)=N4)cc3c2c1` [Example 103, (R)-5-Amino-3,6,6-trimethyl-3-(8-(prop-1-yn-1-yl)dibenzo[b,d]thiophen-2-yl)-3,6-dihydro-2H-1,4-thiazine 1,1-dioxide], for which the IC50 (Cricetulus griseus, CHO, 12 h) was 13 nM.
On to `CC#Cc1ccc2sc3cc(F)c([C@]4(C)CS(=O)(=O)C(C)(C)C(=N)N4)cc3c2c1` [Example 109, (R)-5-Amino-3-(3-fluoro-8-(prop-1-yn-1-yl)dibenzo[b,d]thiophen-2-yl)-3,6,6-trim ethyl-3,6-dihydro-2H-1,4-thiazine 1,1-dioxide], for which the IC50 was determined as 5 nM. Also, the IC50 (Cricetulus griseus, CHO, 12 h) came to 5.5 ± 1.95 nM.

Broadly, the IC50 is the point on the concentration scale where inhibition reaches its midpoint.
